Type in all cases: in vivo
Assay [1] has as its system Lindernia pyxidaria. Kind of assay: Test Example 1: herbicidal effect test by soil application in paddy rice. The conditions noted are these: 336 h, 120 g active ingredient per 10 ares, applied immediately after sowing, flooded pots, 14 days after application, read-out: weed inhibition rate. The method in brief: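 Pre-emergence test in puddled, flooded paddy soil (about 3 cm water), 30 seeds per weed sown at 0–1 cm depth in a glass greenhouse. Emulsifiable concentrate diluted in water and dropped onto the pots straight after sowing at 120 g a.i. per 10 ares. Weed inhibition (%) scored at 14 days, in duplicate.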

The subject of assay [2] is Lindernia pyxidaria. The assay is described as follows: Test Example 2: herbicidal effect test by application during growth period of paddy rice. The conditions noted are these: 120 g per 10 ares, applied seven days after sowing, flooded pots, 14 days after application, read-out: weed inhibition rate. The procedure, abridged:
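Herbicidal effect was scored 14 days after treatment, in duplicate per concentration. Weeds sown 0–1 cm deep in puddled, fertilized paddy soil under about 3 cm of standing water received a water-diluted emulsifiable concentrate by dropper 7 days post-sowing, at 120 g a.i. per 10 ares.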

For assay [3], the system named is Chenopodium album. The assay is described as follows: Test Example 4: herbicidal effect test by stem and leaf treatment in upland field. Particulars: 120 g per 10 ares, sprayed seven days after sowing, upland soil, 14 days after application, read-out: weed inhibition rate.
Assay [4] relates to Echinochloa crus-galli var. formosensis at the three-leaf stage. The assay is described as follows: Comparative Example: herbicidal effect test by application during growth period of paddy rice (three-leaf stage, Table 7). The conditions noted are these: 504 h, active ingredient 7.5 g per 10 ares, emulsifiable concentrate applied by dropper to flooded pots, 21 days after chemical application, triplicate, read-out: Weed inhibition rate (%). As for the experimental part:
As an example, the herbicidal effect on Echinochloa crus-galli var. formosensis at the three-leaf stage was confirmed by the following method, and the results are specifically shown in Table 7 as a comparative example.
Wagner pots with an area of […] were filled with paddy soil, followed by addition of water and incorporation of chemical fertilizer (N:P:K = 16:16:16), after which puddling was performed. After that, 30 seeds of Echinochloa crus-galli var. formosensis were sown at a depth of 0 cm to 1 cm. Immediately after sowing, the pots were flooded and a water depth of approximately 3 cm was maintained. Subsequent management was conducted in a glass greenhouse. When Echinochloa crus-galli var. formosensis reached the three-leaf stage, an emulsifiable concentrate prepared according to Formulation Example 5 using the compound shown below was diluted with water, and a specified amount of the diluted solution was applied by dropper. The amount of the active ingredient to be applied was equivalent to 7.5 g per 10 ares. The test was conducted in triplicate for each chemical concentration group, and the weed inhibition rate (%) was determined 21 days after chemical application using the following formula (Math. 1).

For assay [5], the system named is Amaranthus viridis. Kind of assay: Test Example 7: herbicidal effect test by soil application in upland field (low dose). Particulars: read-out: weed inhibition rate.
Assay [6] deals with Amaranthus viridis. The assay is described as follows: Test Example 4: herbicidal effect test by stem and leaf treatment in upland field. Particulars: 120 g per 10 ares, sprayed seven days after sowing, upland soil, 14 days after application, read-out: weed inhibition rate. The procedure, abridged: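 Post-emergence spray, 7 days after sowing: diluted emulsifiable concentrate at 100 liters per 10 ares delivering 120 g active ingredient per 10 ares. Weeds grown from seed mixed into the top 1 cm of alluvial loam. Inhibition (%) by formula at 14 days; duplicates.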

Assay [7] concerns Lindernia pyxidaria. The assay is described as follows: Test Example 5: herbicidal effect test by soil application in paddy rice (low dose). The conditions noted are these: 336 h, 7.5 g per 10 ares, applied immediately after sowing, flooded pots, 14 days after application, read-out: weed inhibition rate. The procedure, abridged: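 Dose of 7.5 g a.i. per 10 ares, applied by dropper as diluted emulsifiable concentrate to flooded (~3 cm) paddy pots immediately after sowing seeds at 0–1 cm. Kept in a glass greenhouse; duplicate pots rated at 14 days post-application.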

The mark [8] stands for this setting: 7.5 g per 10 ares, sprayed one day after sowing, upland soil, 14 days after application.

Like-named read-outs stand apart in the source and are kept apart here.

One may read the inhibition as the drop in the measured response relative to a control, in per cent.

Consider `Cc1ccccc1CO[C@@H]1C[C@]2(C(C)C)O[C@@]1(C)CC2=O` [2-3, (1R,4S,5R)-1-isopropyl-4-methyl-5-((2-methylbenzyl)oxy)-7-oxabicyclo[2.2.1]heptan-2-one], for which the pest or weed control at 1200 g/ha in assay [1] is at least 80%. In addition, the inhibition at 1200 g/ha in assay [2] and in assay [3] was at least 80% each time.

`CC(C)[C@]12C[C@@H](OCc3ccccc3F)[C@](C)(C[C@@H]1Br)O2` [1-19, (1S,2R,4R,5S)-5-bromo-2-[(2-fluorophenyl)methoxy]-1-methyl-4-isopropyl-7-oxabicyclo[2.2.1]heptane]: in assay [4], the inhibition at 75 g/ha was 88%. In addition, in assay [1], the pest or weed control at 1200 g/ha is at least 80%. For the same molecule, the inhibition at 1200 g/ha in assay [2] and in assay [3] was at least 80% each time. As to `CC(C)[C@]12C[C@@H](OCc3ccccc3Cl)[C@](C)(CC1=O)O2` [2-11, (1R,4S,5R)-5-((2-chlorobenzyl)oxy)-1-isopropyl-4-methyl-7-oxabicyclo[2.2.1]heptan-2-one], in assay [2], the inhibition at 1200 g/ha was at least 80%. Consider `Cc1ccccc1CO[C@@H]1C[C@]2(C(C)C)O[C@@]1(C)CC2C` (stereo partly drawn) [1-83, (1S,2R,4R)-4-isopropyl-1,5-dimethyl-2-((2-methylbenzyl)oxy)-7-oxabicyclo[2.2.1]heptane], for which the inhibition at 75 g/ha in assay [4] was 99%. For the same molecule, in assay [3], the inhibition at 1200 g/ha is at least 80%. For `CC(C)[C@]12C[C@@H](OCc3c(F)cccc3F)[C@](C)(C[C@@H]1F)O2` [1-7, (1S,2R,4R,5S)-2-((2,6-difluorobenzyl)oxy)-5-fluoro-4-isopropyl-1-methyl-7-oxabicyclo[2.2.1]heptane], the inhibition at 75 g/ha was at least 80% in assay [5] (setting [8]) and 100% in assay [4]. Further, in assay [1], the pest or weed control at 1200 g/ha was at least 80%. In addition, the inhibition at 1200 g/ha in assay [3] is at least 80%. As to `CC(C)[C@]12C[C@@H](OCc3cccc(F)c3)[C@](C)(CC1=O)O2` [2-351, (1R,4S,5R)-5-((3-fluorobenzyl)oxy)-1-isopropyl-4-methyl-7-oxabicyclo[2.2.1]heptan-2-one], the pest or weed control at 1200 g/ha in assay [1] is at least 80%. The inhibition at 1200 g/ha in assay [2] and in assay [3] was at least 80% throughout. In the case of `CC(C)[C@]12C[C@@H](OCc3ccccc3Br)[C@](C)(C[C@@H]1Br)O2` [1-694, (1S,2R,4R,5S)-5-bromo-2-[(2-bromophenyl)methoxy]-1-methyl-4-isopropyl-7-oxabicyclo[2.2.1]heptane], in assay [5] (setting [8]), the inhibition at 75 g/ha was at least 80%. As to `CCC1C[C@]2(C)O[C@@]1(C(C)C)C[C@H]2OCc1ccccc1F` (stereo partly drawn) [1-126, (1R,4S,5R)-2-ethyl-5-[(2-fluorobenzyl)oxy]-1-isopropyl-4-methyl-7-oxabicyclo[2.2.1]heptane], the inhibition at 75 g/ha in assay [4] came out at 100%.

For the molecule `CC(C)=CCO[C@@H]1C[C@]2(C(C)C)O[C@@]1(C)C[C@@H]2Br` [1-672, (1S,2R,4R,5S)-5-bromo-1-methyl-2-(3-methylbut-2-enoxy)-4-isopropyl-7-oxabicyclo[2.2.1]heptane], the inhibition at 1200 g/ha in assay [2] is at least 80%. `CCO[C@H]1C[C@]2(C)O[C@@]1(C(C)C)C[C@H]2OCc1ccccc1F` [1-183, (1S,2R,4R,5S)-5-ethoxy-2-[(2-fluorophenyl)methoxy]-1-methyl-4-isopropyl-7-oxabicyclo[2.2.1]heptane]: the inhibition at 75 g/ha in assay [4] was 93%. In the case of `Cc1ccccc1CO[C@@H]1C[C@]2(C(C)C)O[C@@]1(C)C[C@@H]2Br` [1-16, (1S,2R,4R,5S)-5-bromo-1-methyl-2-[(2-methylphenyl)methoxy]-4-isopropyl-7-oxabicyclo[2.2.1]heptane], in assay [1], the pest or weed control at 1200 g/ha was at least 80%. As to `Cc1ccccc1CO[C@@H]1C[C@]2(C(C)C)O[C@@]1(C)C/C2=N\O` [2-191, (1R,4S,5R,E)-1-isopropyl-4-methyl-5-((2-methylbenzyl)oxy)-7-oxabicyclo[2.2.1]heptan-2-one oxime], the inhibition at 1200 g/ha in assay [6] was at least 80%. For `CC(C)[C@]12C[C@@H](OCc3c(F)cccc3F)[C@](C)(C[C@@H]1Br)O2` [1-21, (1S,2R,4R,5S)-5-bromo-2-[(2,6-difluorophenyl)methoxy]-1-methyl-4-isopropyl-7-oxabicyclo[2.2.1]heptane], the inhibition at 75 g/ha in assay [4] is 93%. Same read-out and setting: under `CC(C)[C@]12C[C@@H](OCc3ccccc3)[C@](C)(C[C@@H]1Br)O2` [1-15, (1S,2R,4R,5S)-5-bromo-1-methyl-2-phenylmethoxy-4-isopropyl-7-oxabicyclo[2.2.1]heptane] stands 80%. Take `Cc1cccc(C)c1CO[C@@H]1C[C@]2(C(C)C)O[C@@]1(C)CC2=O` [2-5, (1R,4S,5R)-5-((2,6-dimethylbenzyl)oxy)-1-isopropyl-4-methyl-7-oxabicyclo[2.2.1]heptan-2-one]: the inhibition at 75 g/ha in assay [7] was at least 80%. Besides, the pest or weed control at 1200 g/ha in assay [1] is at least 80%. The inhibition at 1200 g/ha in assay [2] is at least 80%. As to `C=CCO[C@H]1C[C@]2(C)O[C@@]1(C(C)C)C[C@H]2OCc1ccccc1F` [1-1602, (1S,2R,4R,5S)-2-[(2-fluorophenyl)methoxy]-1-methyl-4-isopropyl-5-prop-2-enoxy-7-oxabicyclo[2.2.1]heptane], in assay [4], the inhibition at 75 g/ha came out at 82%. As for `CC(C)[C@]12C[C@@H](OCc3c(F)cccc3F)[C@](C)(CC1C)O2` (stereo partly drawn) [1-111, (1S,2R,4R)-2-((2,6-difluorobenzyl)oxy)-4-isopropyl-1,5-dimethyl-7-oxabicyclo[2.2.1]heptane], the inhibition at 75 g/ha in assay [4] worked out at 100%. For the molecule `CC(C)[C@]12C[C@@H](OCc3ccccc3F)[C@](C)(C[C@@H]1I)O2` [1-753, (1S,2R,4R,SS)-2-[(2-fluorophenyl)methoxy]-5-iodo-1-methyl-4-isopropyl-7-oxabicyclo[2.2.1]heptane], the inhibition at 75 g/ha in assay [5] (soil) is at least 80%; in assay [4], 93%. Turning to `CC(C)[C@]12C[C@@H](OCc3ccccc3F)[C@](C)(C[C@@H]1F)O2` [1-5, (1R,2S,4S,5R)-2-fluoro-5-((2-fluorobenzyl)oxy)-1-isopropyl-4-methyl-7-oxabicyclo[2.2.1]heptane], the inhibition at 75 g/ha in assay [4] was 100%. The inhibition at 1200 g/ha in assay [3] is at least 80%. Regarding `COC1(OC)C[C@]2(C)O[C@@]1(C(C)C)C[C@H]2OCc1ccccc1F` [1-935, (1R,4S,5R)-5-((2-fluorobenzyl)oxy)-1-isopropyl-2,2-dimethoxy-4-methyl-7-oxabicyclo[2.2.1]heptane], the pest or weed control at 1200 g/ha in assay [1] is at least 80%. Besides, the inhibition at 1200 g/ha in assay [2] is at least 80%. Turning to `CC(C)[C@]12C[C@@H](OCc3ccccc3F)[C@](C)(C/C1=N\O)O2` [2-197, (1R,4S,5R,E)-5-((2-fluorobenzyl)oxy)-1-isopropyl-4-methyl-7-oxabicyclo[2.2.1]heptan-2-one oxime], in assay [1], the pest or weed control at 1200 g/ha is at least 80%. The inhibition at 1200 g/ha in assay [6] was at least 80%. For the molecule `Cc1ccccc1CO[C@@H]1C[C@@]2(C(C)C)C=C[C@]1(C)O2` [3-2, (1R,4S,5R)-4-methyl-5-[(2-methylphenyl)methoxy]-1-isopropyl-7-oxabicyclo[2.2.1]hept-2-ene], the inhibition at 75 g/ha in assay [5] (setting [8]) is at least 80%. Consider `CC(C)[C@]12C[C@@H](OCc3ccc(F)cc3)[C@](C)(CC1=O)O2` [2-349, (1R,4S,5R)-5-((4-fluorobenzyl)oxy)-1-isopropyl-4-methyl-7-oxabicyclo[2.2.1]heptan-2-one], for which, in assay [1], the pest or weed control at 1200 g/ha was at least 80%. In addition, the inhibition at 1200 g/ha in assay [2] and in assay [6] was at least 80% each time. `Cc1ccccc1CO[C@@H]1C[C@]2(C(C)C)O[C@@]1(C)C[C@@H]2I` [1-741, (1S,2R,4R,5S)-5-iodo-1-methyl-2-[(2-methylphenyl)methoxy]-4-isopropyl-7-oxabicyclo[2.2.1]heptane]: the inhibition at 75 g/ha in assay [7] is at least 80%. For the same molecule, the pest or weed control at 1200 g/ha in assay [1] is at least 80%.

As to `CC(C)[C@]12C[C@@H](OCc3ccccc3C#N)[C@](C)(C[C@@H]1Br)O2` [1-703, 2-[[(1S,2R,4R,5S)-5-bromo-1-methyl-4-isopropyl-7-oxabicyclo[2.2.1]heptan-2-yl]oxymethyl]benzonitrile], the pest or weed control at 1200 g/ha in assay [1] is at least 80%. For the same molecule, in assay [2], the inhibition at 1200 g/ha was at least 80%.
